Reference: publication PMC12281475, “Mediator Kinase Inhibitor Selectivity and Activity in Colorectal Cancer” (ACS Chemical Biology, 2025)

What was measured:
CDK2_CycE1 = target: T1, CDK2_CycE1 (Homo sapiens, UniProt P24941); assay: Radiometric protein kinase assay (33PanQinase), CDK2_CycE1; type: biochemical
T1 construct: purchased Reaction Biology

CDK7_CycH_MAT1 = target: T2, CDK7_CycH_MAT1 (Homo sapiens, UniProt P50613); assay: Radiometric protein kinase assay (33PanQinase), CDK7_CycH_MAT1; type: biochemical
T2 construct: purchased Reaction Biology

CDK5_p35NCK = target: T3, CDK5_p35NCK (Homo sapiens, UniProt Q00535); assay: Radiometric protein kinase assay (33PanQinase), CDK5_p35NCK; type: biochemical
T3 construct: purchased Reaction Biology

CDK20_CycH = CDK20_CycH (Homo sapiens, UniProt Q8IZL9); assay: Radiometric protein kinase assay (33PanQinase), CDK20_CycH; type: biochemical
CDK9_CycK = target: T4, CDK9_CycK (Homo sapiens, UniProt P50750); assay: Radiometric protein kinase assay (33PanQinase), CDK9_CycK; type: biochemical
T4 construct: purchased Reaction Biology

CDK6_CycD1 = target: T5, CDK6_CycD1 (Homo sapiens, UniProt Q00534); assay: Radiometric protein kinase assay (33PanQinase), CDK6_CycD1; type: biochemical
T5 construct: purchased Reaction Biology

CDK3_CycE1 = target: T6, CDK3_CycE1 (Homo sapiens, UniProt Q00526); assay: Radiometric protein kinase assay (33PanQinase), CDK3_CycE1; type: biochemical
T6 construct: purchased Reaction Biology

CDK8 = system: CDK8; set-up: method as in numbers not given; conditions: reporter displacement assay; previously characterized compounds, no method in this paper; ref numbers not given; read-out: IC50 for in vitro CDK8 binding; cited from earlier work
CDK20_CycT1 = CDK20_CycT1 (Homo sapiens, UniProt Q8IZL9); assay: Radiometric protein kinase assay (33PanQinase), CDK20_CycT1; type: biochemical
CDK2_CycD1 = target: T7, CDK2_CycD1 (Homo sapiens, UniProt P24941); assay: Radiometric protein kinase assay (33PanQinase), CDK2_CycD1; type: biochemical
T7 construct: purchased Reaction Biology

CDK4_CycD3 = target: T8, CDK4_CycD3 (Homo sapiens, UniProt P11802); assay: Radiometric protein kinase assay (33PanQinase), CDK4_CycD3; type: biochemical
T8 construct: purchased Reaction Biology

CDK16_CycY = target: T9, CDK16_CycY (Homo sapiens, UniProt Q00536); assay: Radiometric protein kinase assay (33PanQinase), CDK16_CycY; type: biochemical
T9 construct: purchased Reaction Biology

CDK19_CycC = target: T10, CDK19_CycC (Homo sapiens, UniProt Q9BWU1); assay: Radiometric protein kinase assay (33PanQinase), CDK19_CycC; type: biochemical
T10 construct: purchased Reaction Biology

CDK1_CycA2 = target: T11, CDK1_CycA2 (Homo sapiens, UniProt P06493); assay: Radiometric protein kinase assay (33PanQinase), CDK1_CycA2; type: biochemical
T11 construct: purchased Reaction Biology

CDK6_CycD3 = target: T12, CDK6_CycD3 (Homo sapiens, UniProt Q00534); assay: Radiometric protein kinase assay (33PanQinase), CDK6_CycD3; type: biochemical; conditions: slope of the IC50 fit
T12 construct: purchased Reaction Biology

CDK8_CycC = target: T13, CDK8_CycC (Homo sapiens, UniProt P49336); assay: Radiometric protein kinase assay (33PanQinase), CDK8_CycC; type: biochemical
T13 construct: purchased Reaction Biology

CDK18_CycY = CDK18_CycY (Homo sapiens, UniProt Q07002); assay: Radiometric protein kinase assay (33PanQinase), CDK18_CycY; type: biochemical
COLO205 cells = assay: Promoter reporter panel (transient luciferase constructs), COLO205; type: cell-based, human; conditions: COLO205, 350 nM, 6 h
Procedure: Transcription factor activity was assayed in cell lines using 45 different plasmid reporter constructs encoding firefly luciferase under the control of a basal promoter element downstream of specific transcriptional response elements (Qiagen, Germany; Supporting Table S1). Firefly luciferase under the control of basal promoter element alone was used to establish the baseline signal and cotransfection of a construct expressing renilla luciferase from a CMV-promoter was used as a transfection control. Cells were reverse-transfected with reporter plasmids, compounds were added 42 h post transfection and reporter activity quantified following 6 h continuous exposure.
Transcription factor promoter reporter assays were carried out to define signalling pathways and biological processes modulated by CDK8/19 ligands. A panel of plasmid reporter constructs encoding firefly luciferase under the control of a basal promoter element with specific transcriptional response elements were used (Qiagen, Germany;
Firefly luciferase under the control of the minimal promoter element (TATA box) alone was used to establish the base-line signal and a construct expressing renilla luciferase from a CMV-promoter was used as a transfection control. COLO205 human colon cancer cells or SW620 parental and CRISPR KO cells were reverse-transfected with the panel of plasmid reporters in a 96 well plate format. The reporter mixes were prepared at 40:1 ratio of fLUC to rLUC plasmid at a final concentration of
100 ng/ml. For each well 1 ul plasmid was complexed with 1 ul Lipofectamine 2000
(Thermo Fisher Scientific, UK) in 50 ul OptiMEM (Thermo Fisher Scientific, UK) media
for 20 mins at room temperature. Cells were trypsinised and 50 ul of cells at 2e5
cells/ml in supplemented DMEM were added to the 50 ul of plasmid:lipofectamine
mixture in OptiMEM in a well of a 96-well white opaque flat bottom microtiter plate.
fLUC and rLUC were measured by the addition of 100 ul dual glo luciferase reagent
(Promega, USA). Reporter activity was quantified in untreated cells 48 hours post- […]

CDK1_CycE1 = target: T14, CDK1_CycE1 (Homo sapiens, UniProt P06493); assay: Radiometric protein kinase assay (33PanQinase), CDK1_CycE1; type: biochemical
T14 construct: purchased Reaction Biology

CDK4_CycD2 = target: T15, CDK4_CycD2 (Homo sapiens, UniProt P11802); assay: Radiometric protein kinase assay (33PanQinase), CDK4_CycD2; type: biochemical
T15 construct: purchased Reaction Biology

CDK13_CycK = target: T16, CDK13_CycK (Homo sapiens, UniProt Q14004); assay: Radiometric protein kinase assay (33PanQinase), CDK13_CycK; type: biochemical
T16 construct: purchased Reaction Biology

CDK11B 357-795_CycK = CDK11B 357-795_CycK (Homo sapiens, UniProt P21127); assay: Radiometric protein kinase assay (33PanQinase), CDK11B 357-795_CycK; type: biochemical
CDK10_CycQ = CDK10_CycQ (Homo sapiens, UniProt Q15131); assay: Radiometric protein kinase assay (33PanQinase), CDK10_CycQ; type: biochemical
CDK5_p25NCK = target: T17, CDK5_p25NCK (Homo sapiens, UniProt Q00535); assay: Radiometric protein kinase assay (33PanQinase), CDK5_p25NCK; type: biochemical
T17 construct: purchased Reaction Biology

CDK9_CycT1 = target: T18, CDK9_CycT1 (Homo sapiens, UniProt P50750); assay: Radiometric protein kinase assay (33PanQinase), CDK9_CycT1; type: biochemical
T18 construct: purchased Reaction Biology

CDK17_p35NCK = CDK17_p35NCK (Homo sapiens, UniProt Q00537); assay: Radiometric protein kinase assay (33PanQinase), CDK17_p35NCK; type: biochemical
CDK3_CycC = target: T19, CDK3_CycC (Homo sapiens, UniProt Q00526); assay: Radiometric protein kinase assay (33PanQinase), CDK3_CycC; type: biochemical
T19 construct: purchased Reaction Biology

CDK4_CycD1 = target: T20, CDK4_CycD1 (Homo sapiens, UniProt P11802); assay: Radiometric protein kinase assay (33PanQinase), CDK4_CycD1; type: biochemical
T20 construct: purchased Reaction Biology

CDK6_CycD2 = target: T21, CDK6_CycD2 (Homo sapiens, UniProt Q00534); assay: Radiometric protein kinase assay (33PanQinase), CDK6_CycD2; type: biochemical
T21 construct: purchased Reaction Biology

CDK15_CycA2 = target: T22, CDK15_CycA2 (Homo sapiens, UniProt Q96Q40); assay: Radiometric protein kinase assay (33PanQinase), CDK15_CycA2; type: biochemical
T22 construct: purchased Reaction Biology

CDK2_CycA2 = target: T23, CDK2_CycA2 (Homo sapiens, UniProt P24941); assay: Radiometric protein kinase assay (33PanQinase), CDK2_CycA2; type: biochemical
T23 construct: purchased Reaction Biology

CDK12_CycK = target: T24, CDK12_CycK (Homo sapiens, UniProt Q9NYV4); assay: Radiometric protein kinase assay (33PanQinase), CDK12_CycK; type: biochemical
T24 construct: purchased Reaction Biology

CDK14_CycY = CDK14_CycY (Homo sapiens, UniProt O94921); assay: Radiometric protein kinase assay (33PanQinase), CDK14_CycY; type: biochemical
CDK1_CycB1 = target: T25, CDK1_CycB1 (Homo sapiens, UniProt P06493); assay: Radiometric protein kinase assay (33PanQinase), CDK1_CycB1; type: biochemical
T25 construct: purchased Reaction Biology

[1] = highest assay concentration 1.00E-05 M

Chain of CDK20_CycT1 (Q8IZL9 whole entry): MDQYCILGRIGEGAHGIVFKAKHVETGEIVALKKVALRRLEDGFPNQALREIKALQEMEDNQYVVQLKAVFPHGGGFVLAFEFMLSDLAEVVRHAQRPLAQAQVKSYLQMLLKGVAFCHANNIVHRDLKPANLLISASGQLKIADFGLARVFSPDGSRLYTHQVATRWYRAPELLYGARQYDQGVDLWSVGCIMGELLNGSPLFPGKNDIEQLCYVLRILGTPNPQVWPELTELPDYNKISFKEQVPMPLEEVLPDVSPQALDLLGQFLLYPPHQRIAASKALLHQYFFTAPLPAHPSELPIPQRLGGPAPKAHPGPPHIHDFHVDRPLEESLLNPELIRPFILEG
Chain of CDK20_CycH (Q8IZL9 whole entry): as above
T10 sequence (Q9BWU1 whole entry): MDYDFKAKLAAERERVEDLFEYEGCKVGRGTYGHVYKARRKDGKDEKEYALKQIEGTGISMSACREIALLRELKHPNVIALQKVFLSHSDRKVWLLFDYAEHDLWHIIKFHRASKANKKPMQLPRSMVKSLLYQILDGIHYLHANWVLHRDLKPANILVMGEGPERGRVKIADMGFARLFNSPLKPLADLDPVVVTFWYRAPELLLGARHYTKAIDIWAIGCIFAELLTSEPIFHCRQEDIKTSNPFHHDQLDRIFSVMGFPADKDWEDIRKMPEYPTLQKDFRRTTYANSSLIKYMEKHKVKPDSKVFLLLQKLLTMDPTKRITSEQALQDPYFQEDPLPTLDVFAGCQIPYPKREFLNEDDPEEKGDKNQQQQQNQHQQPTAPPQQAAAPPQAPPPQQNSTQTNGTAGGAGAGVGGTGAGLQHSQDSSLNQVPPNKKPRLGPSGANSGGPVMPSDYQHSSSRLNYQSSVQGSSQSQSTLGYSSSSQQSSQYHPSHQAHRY
T10 sequence (P24863 whole entry partner): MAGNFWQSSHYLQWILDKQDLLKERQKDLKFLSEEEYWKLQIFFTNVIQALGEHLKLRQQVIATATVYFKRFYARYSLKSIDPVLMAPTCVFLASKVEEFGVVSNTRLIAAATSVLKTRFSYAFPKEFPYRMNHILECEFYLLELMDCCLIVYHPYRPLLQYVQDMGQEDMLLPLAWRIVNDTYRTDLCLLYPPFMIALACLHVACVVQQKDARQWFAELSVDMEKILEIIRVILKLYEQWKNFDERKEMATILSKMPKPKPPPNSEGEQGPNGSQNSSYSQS
T9 sequence (Q00536 whole entry): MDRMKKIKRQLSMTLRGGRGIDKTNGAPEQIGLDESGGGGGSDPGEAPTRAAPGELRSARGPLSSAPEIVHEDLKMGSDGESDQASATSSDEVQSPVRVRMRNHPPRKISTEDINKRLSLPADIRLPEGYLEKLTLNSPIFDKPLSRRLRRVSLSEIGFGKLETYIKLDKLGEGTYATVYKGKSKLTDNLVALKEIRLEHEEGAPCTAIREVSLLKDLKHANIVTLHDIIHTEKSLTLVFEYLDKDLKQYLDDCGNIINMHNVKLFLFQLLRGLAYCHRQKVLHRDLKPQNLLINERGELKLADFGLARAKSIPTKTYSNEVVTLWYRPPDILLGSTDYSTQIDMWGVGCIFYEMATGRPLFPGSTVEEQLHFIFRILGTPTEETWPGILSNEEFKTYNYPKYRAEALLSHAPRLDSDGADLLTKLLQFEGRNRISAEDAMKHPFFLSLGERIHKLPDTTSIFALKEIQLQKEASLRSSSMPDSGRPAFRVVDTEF
T9 sequence (Q8ND76 whole entry partner): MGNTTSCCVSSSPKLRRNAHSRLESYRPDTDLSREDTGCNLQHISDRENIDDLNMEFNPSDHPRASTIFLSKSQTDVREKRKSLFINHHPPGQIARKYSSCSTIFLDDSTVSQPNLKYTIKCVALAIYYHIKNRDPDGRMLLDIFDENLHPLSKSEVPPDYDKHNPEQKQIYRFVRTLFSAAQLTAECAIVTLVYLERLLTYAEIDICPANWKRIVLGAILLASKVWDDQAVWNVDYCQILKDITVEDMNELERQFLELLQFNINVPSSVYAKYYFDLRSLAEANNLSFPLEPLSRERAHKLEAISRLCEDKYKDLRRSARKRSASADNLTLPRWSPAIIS
Chain of CDK14_CycY (O94921 whole entry): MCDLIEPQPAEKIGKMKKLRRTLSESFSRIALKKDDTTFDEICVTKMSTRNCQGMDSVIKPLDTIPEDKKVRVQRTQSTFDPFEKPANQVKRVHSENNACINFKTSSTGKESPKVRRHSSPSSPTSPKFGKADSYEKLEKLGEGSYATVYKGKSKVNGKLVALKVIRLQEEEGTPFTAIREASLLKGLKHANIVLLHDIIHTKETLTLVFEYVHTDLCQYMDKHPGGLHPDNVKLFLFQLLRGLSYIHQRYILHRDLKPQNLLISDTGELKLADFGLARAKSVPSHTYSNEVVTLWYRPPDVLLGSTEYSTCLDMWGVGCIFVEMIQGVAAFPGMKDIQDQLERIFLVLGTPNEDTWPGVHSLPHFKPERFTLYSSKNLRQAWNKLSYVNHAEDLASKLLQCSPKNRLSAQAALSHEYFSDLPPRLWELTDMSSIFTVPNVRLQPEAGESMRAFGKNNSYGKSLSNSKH
Chain of CDK14_CycY (Q8ND76 whole entry partner): as the sequence (Q8ND76 whole entry partner) above
Chain of CDK18_CycY (Q07002 whole entry): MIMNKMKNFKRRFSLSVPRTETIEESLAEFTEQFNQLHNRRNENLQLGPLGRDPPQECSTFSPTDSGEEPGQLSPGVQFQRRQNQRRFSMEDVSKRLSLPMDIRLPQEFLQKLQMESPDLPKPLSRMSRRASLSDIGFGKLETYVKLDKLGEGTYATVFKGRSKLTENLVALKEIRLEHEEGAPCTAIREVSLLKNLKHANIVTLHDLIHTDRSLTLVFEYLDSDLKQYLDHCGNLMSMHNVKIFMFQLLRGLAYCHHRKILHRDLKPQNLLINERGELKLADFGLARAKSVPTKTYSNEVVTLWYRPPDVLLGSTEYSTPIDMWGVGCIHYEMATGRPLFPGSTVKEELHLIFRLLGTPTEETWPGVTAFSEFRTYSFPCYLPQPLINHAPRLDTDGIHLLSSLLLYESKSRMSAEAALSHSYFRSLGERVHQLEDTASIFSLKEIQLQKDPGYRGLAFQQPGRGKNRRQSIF
Chain of CDK18_CycY (Q8ND76 whole entry partner): as the sequence (Q8ND76 whole entry partner) above
T19 sequence (Q00526 whole entry): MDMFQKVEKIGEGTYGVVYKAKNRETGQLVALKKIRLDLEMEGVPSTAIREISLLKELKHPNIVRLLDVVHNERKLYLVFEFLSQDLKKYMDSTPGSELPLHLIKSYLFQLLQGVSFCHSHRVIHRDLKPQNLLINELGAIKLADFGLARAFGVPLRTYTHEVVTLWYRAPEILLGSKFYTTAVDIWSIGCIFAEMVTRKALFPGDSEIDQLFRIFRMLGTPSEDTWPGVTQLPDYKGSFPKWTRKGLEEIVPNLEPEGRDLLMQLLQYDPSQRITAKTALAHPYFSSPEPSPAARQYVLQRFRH
T19 sequence (P24863 whole entry partner): as the sequence (P24863 whole entry partner) above
T15 sequence (P11802 whole entry): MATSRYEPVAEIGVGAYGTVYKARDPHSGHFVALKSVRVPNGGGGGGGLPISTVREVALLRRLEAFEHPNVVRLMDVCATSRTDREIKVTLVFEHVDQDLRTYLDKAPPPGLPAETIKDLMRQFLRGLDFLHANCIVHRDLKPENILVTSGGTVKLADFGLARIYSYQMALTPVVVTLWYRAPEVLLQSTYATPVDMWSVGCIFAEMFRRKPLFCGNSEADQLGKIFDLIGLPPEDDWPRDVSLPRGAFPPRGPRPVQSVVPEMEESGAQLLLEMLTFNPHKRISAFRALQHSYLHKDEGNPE
T15 sequence (P30279 whole entry partner): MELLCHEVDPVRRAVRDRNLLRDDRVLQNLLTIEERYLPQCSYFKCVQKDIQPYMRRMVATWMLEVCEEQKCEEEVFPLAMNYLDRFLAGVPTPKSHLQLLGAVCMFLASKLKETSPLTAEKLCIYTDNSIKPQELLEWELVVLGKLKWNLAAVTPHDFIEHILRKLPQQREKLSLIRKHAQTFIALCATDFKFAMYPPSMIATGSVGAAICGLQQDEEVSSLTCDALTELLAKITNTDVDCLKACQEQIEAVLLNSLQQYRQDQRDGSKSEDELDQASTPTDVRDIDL
T8 sequence (P11802 whole entry): as the sequence (P11802 whole entry) above
T8 sequence (P30281 whole entry partner): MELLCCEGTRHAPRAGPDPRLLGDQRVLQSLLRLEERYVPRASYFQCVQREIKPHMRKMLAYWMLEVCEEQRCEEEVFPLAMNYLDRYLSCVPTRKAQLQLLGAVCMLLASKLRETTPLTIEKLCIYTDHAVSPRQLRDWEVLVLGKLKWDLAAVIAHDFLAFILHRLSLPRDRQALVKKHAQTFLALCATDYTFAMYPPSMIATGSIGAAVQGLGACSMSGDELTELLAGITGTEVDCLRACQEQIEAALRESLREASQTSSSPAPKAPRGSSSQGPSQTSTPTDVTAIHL
T21 sequence (Q00534 whole entry): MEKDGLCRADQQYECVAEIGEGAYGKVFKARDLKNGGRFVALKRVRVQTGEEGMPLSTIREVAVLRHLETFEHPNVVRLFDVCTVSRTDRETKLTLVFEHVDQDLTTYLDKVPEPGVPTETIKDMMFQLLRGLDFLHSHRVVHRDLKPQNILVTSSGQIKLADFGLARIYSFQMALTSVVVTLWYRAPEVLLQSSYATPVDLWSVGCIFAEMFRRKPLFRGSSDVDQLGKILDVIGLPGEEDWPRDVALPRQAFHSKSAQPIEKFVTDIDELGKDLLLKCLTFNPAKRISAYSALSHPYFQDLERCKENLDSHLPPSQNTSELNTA
T21 sequence (P30279 whole entry partner): as the sequence (P30279 whole entry partner) above
T12 sequence (Q00534 whole entry): as the sequence (Q00534 whole entry) above
T12 sequence (P30281 whole entry partner): as the sequence (P30281 whole entry partner) above

For `Cc1n[nH]c2ncc(C(=O)N3CCC[C@H]3c3ccc(Cl)cc3)cc12` [MSC2530818], the IC50 (CDK2_CycE1) was 2.92 µM, the “Hill Slope” value (CDK2_CycE1; slope of the IC50 fit) was -1.29 and the IC50 (CDK7_CycH_MAT1; [1]) was > 10 µM. The “Hill Slope” value (CDK7_CycH_MAT1; slope of the IC50 fit) was -0.6, the IC50 (CDK5_p35NCK; [1]) was 7.57 µM and the “Hill Slope” value (CDK5_p35NCK; slope of the IC50 fit) was -1.04. For the same compound, the IC50 (CDK20_CycH; [1]) was > 10 µM, the “Hill Slope” value (CDK20_CycH; slope of the IC50 fit) was -0.81 and the IC50 (CDK9_CycK; [1]) was > 10 µM. For the same compound, the “Hill Slope” value (CDK9_CycK; slope of the IC50 fit) was -0.78, the IC50 (CDK6_CycD1; [1]) was > 10 µM and the “Hill Slope” value (CDK6_CycD1; slope of the IC50 fit) was -0.22. The IC50 (CDK3_CycE1) was > 10 µM, the “Hill Slope” value (CDK3_CycE1; slope of the IC50 fit) was -0.54 and the IC50 (CDK8) was 0.0044 µM. For the same compound, the IC50 (CDK20_CycT1; [1]) was > 10 µM, the “Hill Slope” value (CDK20_CycT1; slope of the IC50 fit) was -0.44 and the IC50 (CDK2_CycD1) was 9.73 µM. The “Hill Slope” value (CDK2_CycD1; slope of the IC50 fit) was -1.08, the IC50 (CDK4_CycD3; [1]) was > 10 µM and the “Hill Slope” value (CDK4_CycD3; slope of the IC50 fit) was -0.71. The IC50 (CDK16_CycY; [1]) was > 10 µM, the “Hill Slope” value (CDK16_CycY; slope of the IC50 fit) was -0.58 and the IC50 (CDK19_CycC) was 0.355 µM. The “Hill Slope” value (CDK19_CycC; slope of the IC50 fit) was -0.43, the IC50 (CDK1_CycA2) was 6.46 µM and the “Hill Slope” value (CDK1_CycA2; slope of the IC50 fit) was -0.93. For the same compound, the “Hill Slope” value (CDK6_CycD3) was -0.25, the IC50 (CDK8_CycC) was 0.114 µM and the “Hill Slope” value (CDK8_CycC; slope of the IC50 fit) was -0.45. The IC50 (CDK18_CycY; [1]) was 3.72 µM, the “Hill Slope” value (CDK18_CycY; slope of the IC50 fit) was -1.14 and the “reduction of activity of TCF/LEF, SP1 and PAX6 reporter constructs” value (COLO205 cells) was > 1.5 fold. For the same compound, the IC50 (CDK1_CycE1) was 4.15 µM, the “Hill Slope” value (CDK1_CycE1; slope of the IC50 fit) was -0.97 and the IC50 (CDK4_CycD2; [1]) was > 10 µM. The “Hill Slope” value (CDK4_CycD2; slope of the IC50 fit) was -0.44, the IC50 (CDK13_CycK) was > 10 µM and the “Hill Slope” value (CDK13_CycK; slope of the IC50 fit) was -0.19. The IC50 (CDK11B 357-795_CycK; [1]) was > 10 µM, the “Hill Slope” value (CDK11B 357-795_CycK; slope of the IC50 fit) was -0.64 and the IC50 (CDK10_CycQ; [1]) was > 10 µM. The “Hill Slope” value (CDK10_CycQ; slope of the IC50 fit) was -1.12, the IC50 (CDK5_p25NCK; [1]) was > 10 µM and the “Hill Slope” value (CDK5_p25NCK; slope of the IC50 fit) was -0.57. The IC50 (CDK9_CycT1; [1]) was > 10 µM, the “Hill Slope” value (CDK9_CycT1; slope of the IC50 fit) was -1.26 and the IC50 (CDK17_p35NCK; [1]) was > 10 µM. For the same compound, the “Hill Slope” value (CDK17_p35NCK; slope of the IC50 fit) was -0.57, the IC50 (CDK3_CycC) was 6.41 µM and the “Hill Slope” value (CDK3_CycC; slope of the IC50 fit) was -0.76. The IC50 (CDK4_CycD1; [1]) was > 10 µM, the “Hill Slope” value (CDK4_CycD1; slope of the IC50 fit) was -0.48 and the IC50 (CDK6_CycD2; [1]) was > 10 µM. For the same compound, the “Hill Slope” value (CDK6_CycD2; slope of the IC50 fit) was -1.11, the IC50 (CDK15_CycA2; [1]) was > 10 µM and the “Hill Slope” value (CDK15_CycA2; slope of the IC50 fit) was -0.85. The IC50 (CDK2_CycA2) was 6.53 µM, the IC50 (CDK12_CycK; [1]) was 9.75 µM and the “Hill Slope” value (CDK12_CycK; slope of the IC50 fit) was -0.59. The IC50 (CDK14_CycY; [1]) was > 10 µM, the “Hill Slope” value (CDK14_CycY; slope of the IC50 fit) was -1 and the IC50 (CDK1_CycB1; [1]) was > 10 µM. For the same compound, the “Hill Slope” value (CDK1_CycB1; slope of the IC50 fit) was -0.72.
